Assay results taken from ChEMBL document CHEMBL4842316, “Structure-based bioisosterism design of thio-benzoxazepinones as novel necroptosis inhibitors” (Eur J Med Chem, 2021).
Active and inactive are the calls of the source. The calls are words filed in the database; no cut-off is given here.

What was measured:
[1] = tested on: HT-29; experiment: Anti-necroptotic activity in human HT-29 cells assessed as inhibition of hTNFalpha/Z-VAD-fmk (TSZ)-induced necroptosis by measuring increase in cell viability measured after 8 to 10 hrs by celltiter-glo luminescent cell viability assay; format: functional, cell-based
[2] = Cytotoxicity against human HT-29 cells assessed as reduction in cell viability measured after 8 to 10 hrs by celltiter-glo luminescent cell viability assay; format: cell-based; details: time 8-10 hrs
[3] = tested on: HT-29; experiment: Anti-necroptotic activity in human HT-29 cells assessed as inhibition of Z-VAD-fmk (TSZ)-induced necroptosis by measuring increase in cell viability measured after 8 to 10 hrs by celltiter-glo luminescent cell viability assay; format: functional, cell-based; details: time 8-10 hrs
[4] = biological target: T1, Mixed lineage kinase domain-like protein (Homo sapiens) (UniProt Q8NB16); experiment: Inhibition of MLKL phosphorylation in Z-VAD-fmk (TSZ)-induced human HT-29 cells measured at 4 hrs by immunoblotting analysis; format: cell-based; details: dose 0.001-1 µM
T1 sequence (whole entry): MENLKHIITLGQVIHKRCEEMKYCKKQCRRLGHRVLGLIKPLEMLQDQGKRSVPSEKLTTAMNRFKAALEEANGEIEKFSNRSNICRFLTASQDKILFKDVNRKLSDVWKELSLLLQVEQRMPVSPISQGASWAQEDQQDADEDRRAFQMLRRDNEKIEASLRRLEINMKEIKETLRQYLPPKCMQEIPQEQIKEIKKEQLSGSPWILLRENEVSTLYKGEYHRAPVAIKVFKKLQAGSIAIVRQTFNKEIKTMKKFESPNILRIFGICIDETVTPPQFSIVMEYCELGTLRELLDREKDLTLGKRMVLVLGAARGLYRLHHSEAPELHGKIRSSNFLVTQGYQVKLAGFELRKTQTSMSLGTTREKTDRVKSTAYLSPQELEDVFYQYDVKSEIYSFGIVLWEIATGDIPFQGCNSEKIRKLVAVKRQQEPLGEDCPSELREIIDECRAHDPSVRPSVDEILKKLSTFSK

[5] = biological target: T2, Receptor-interacting serine/threonine-protein kinase 1 (Homo sapiens) (UniProt Q13546); experiment: Inhibition of RIPK1 phosphorylation in Z-VAD-fmk (TSZ)-induced human HT-29 cells measured at 4 hrs by immunoblotting analysis; format: cell-based; details: dose 0.001-1 µM
T2 sequence (whole entry): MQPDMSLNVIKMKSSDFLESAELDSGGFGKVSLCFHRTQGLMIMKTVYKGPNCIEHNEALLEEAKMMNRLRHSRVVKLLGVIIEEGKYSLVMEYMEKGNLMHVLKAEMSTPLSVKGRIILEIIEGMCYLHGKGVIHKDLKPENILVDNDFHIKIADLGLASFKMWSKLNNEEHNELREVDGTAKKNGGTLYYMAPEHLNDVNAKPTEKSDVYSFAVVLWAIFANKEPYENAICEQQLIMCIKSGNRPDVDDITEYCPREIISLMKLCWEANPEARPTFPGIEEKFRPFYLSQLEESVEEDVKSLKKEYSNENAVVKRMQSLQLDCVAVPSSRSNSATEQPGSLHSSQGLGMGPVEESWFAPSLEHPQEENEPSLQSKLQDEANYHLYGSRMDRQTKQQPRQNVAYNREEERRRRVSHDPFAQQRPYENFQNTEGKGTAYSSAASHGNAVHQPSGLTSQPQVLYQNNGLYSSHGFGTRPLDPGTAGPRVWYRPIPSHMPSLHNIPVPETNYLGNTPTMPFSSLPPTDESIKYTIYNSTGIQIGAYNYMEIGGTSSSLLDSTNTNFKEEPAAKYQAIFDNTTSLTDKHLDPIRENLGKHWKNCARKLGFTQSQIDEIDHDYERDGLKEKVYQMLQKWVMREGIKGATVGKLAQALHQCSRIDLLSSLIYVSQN

[6] = biological target: Receptor-interacting serine/threonine-protein kinase 3 (Homo sapiens) (UniProt Q9Y572); experiment: Inhibition of RIPK3 in Z-VAD-fmk (TSZ)-induced human HT-29 cells assessed as reduction in RIPK1-RIPK3 necrosome formation at 1 uM measured after 6 hrs by Western blot analysis; format: cell-based
Chain of Receptor-interacting serine/threonine-protein kinase 3 (Homo sapiens) (Q9Y572 whole entry, looked up, the tested form may be a part): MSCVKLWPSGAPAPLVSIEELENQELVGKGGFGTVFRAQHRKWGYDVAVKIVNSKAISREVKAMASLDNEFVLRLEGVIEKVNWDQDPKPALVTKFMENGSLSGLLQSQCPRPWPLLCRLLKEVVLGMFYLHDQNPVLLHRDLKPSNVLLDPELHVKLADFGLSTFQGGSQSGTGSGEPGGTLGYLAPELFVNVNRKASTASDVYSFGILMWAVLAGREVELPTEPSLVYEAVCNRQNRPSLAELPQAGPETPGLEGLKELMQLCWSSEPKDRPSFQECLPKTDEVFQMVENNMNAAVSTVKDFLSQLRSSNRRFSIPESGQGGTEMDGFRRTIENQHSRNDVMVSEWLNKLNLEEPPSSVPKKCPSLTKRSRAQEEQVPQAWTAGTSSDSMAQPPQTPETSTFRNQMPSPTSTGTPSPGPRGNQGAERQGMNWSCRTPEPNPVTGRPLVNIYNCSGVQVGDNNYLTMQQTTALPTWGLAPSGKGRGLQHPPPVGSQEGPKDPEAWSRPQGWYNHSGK

[7] = biological target: T1, Mixed lineage kinase domain-like protein (Homo sapiens); experiment: Inhibition of MLKL phosphorylation in Z-VAD-fmk (TSZ)-induced human HT-29 cells at 1 uM measured up to 4 hrs by immunoblotting analysis; format: cell-based; details: time hrs <=4
[8] = biological target: T2, Receptor-interacting serine/threonine-protein kinase 1 (Homo sapiens); experiment: Inhibition of RIPK1 phosphorylation in Z-VAD-fmk (TSZ)-induced human HT-29 cells at 1 uM measured up to 4 hrs by immunoblotting analysis; format: cell-based; details: time hrs <=4
[9] = biological target: T2, Receptor-interacting serine/threonine-protein kinase 1 (Homo sapiens); experiment: Inhibition of RIPK1 in Z-VAD-fmk (TSZ)-induced human HT-29 cells assessed as reduction in RIPK1-RIPK3 necrosome formation at 1 uM measured after 6 hrs by Western blot analysis; format: cell-based
[10] = biological target: Receptor-interacting serine/threonine-protein kinase 3 (Homo sapiens) (UniProt Q9Y572); experiment: Inhibition of RIPK3 phosphorylation in Z-VAD-fmk (TSZ)-induced human HT-29 cells measured at 4 hrs by immunoblotting analysis; format: cell-based; details: dose 0.001-1 µM
[11] = biological target: Receptor-interacting serine/threonine-protein kinase 3 (Homo sapiens) (UniProt Q9Y572); experiment: Inhibition of RIPK3 phosphorylation in Z-VAD-fmk (TSZ)-induced human HT-29 cells at 1 uM measured up to 4 hrs by immunoblotting analysis; format: cell-based; details: time hrs <=4

Cc1cnc2c(c1)N(C)C(=S)[C@@H](NC(=O)c1n[nH]c(Cc3ccccc3)n1)CO2
EC50 [1]: 0.144 µM | CC50 [2]: > 50 µM

[2H]C([2H])([2H])N1C(=S)[C@@H](NC(=O)c2n[nH]c(Cc3ccccc3)n2)COc2ccccc21
EC50 [1]: 0.0074 µM | CC50 [2]: > 50 µM

CN1C(=S)[C@H](NC(=O)c2n[nH]c(Cc3ccccc3)n2)COc2ncccc21
EC50 [1]: > 10 µM | CC50 [2]: > 50 µM

[2H]C([2H])([2H])N1C(=S)[C@H](NC(=O)c2n[nH]c(Cc3ccccc3)n2)COc2ccccc21
EC50 [1]: 0.0763 µM | CC50 [2]: > 50 µM

CN1C(=O)[C@H](NC(=O)c2n[nH]c(Cc3ccccc3)n2)COc2ncccc21
EC50 [1]: > 10 µM | CC50 [2]: > 50 µM

CN1C(=S)[C@@H](NC(=O)c2n[nH]c(Cc3ccccc3)n2)COc2ccccc21
EC50 [1]: 0.0028 µM | Activity [3]: Dose-Dependent Effect | inhibition [4]: Dose-Dependent Effect | CC50 [2]: > 50 µM | inhibition [5]: Dose-Dependent Effect | inhibition [6]: Active | inhibition [7]: Active | inhibition [8]: Active | inhibition [9]: Active | inhibition [10]: Dose-Dependent Effect | inhibition [11]: Active

Cc1ccc2c(n1)OC[C@@H](NC(=O)c1n[nH]c(Cc3ccccc3)n1)C(=O)N2C
EC50 [1]: 6.5 µM | CC50 [2]: > 50 µM

Cc1cnc2c(c1)N(C)C(=S)[C@H](NC(=O)c1n[nH]c(Cc3ccccc3)n1)CO2
EC50 [1]: 3.4 µM | CC50 [2]: > 50 µM

Cc1cnc2c(c1)N(C)C(=O)[C@@H](NC(=O)c1n[nH]c(Cc3ccccc3)n1)CO2
EC50 [1]: 0.243 µM | CC50 [2]: > 50 µM

CN1C(=S)[C@H](NC(=O)c2n[nH]c(Cc3ccccc3)n2)COc2cccnc21
EC50 [1]: 0.0186 µM | CC50 [2]: > 50 µM

CN1C(=O)[C@@H](NC(=O)c2nnc(Cc3ccccc3)[nH]2)COc2cccnc21 [ECLITASERTIB]
EC50 [1]: 0.0154 µM | CC50 [2]: > 50 µM

CN1C(=O)[C@@H](NC(=O)c2nnc(Cc3ccccc3)[nH]2)COc2ccccc21 [GSK2982772]
EC50 [1]: 0.0036 µM | CC50 [2]: > 50 µM

O=C(N[C@H]1COc2ccccc2NC1=S)c1n[nH]c(Cc2ccccc2)n1
EC50 [1]: 0.736 µM | CC50 [2]: > 50 µM

CN1C(=O)[C@H](NC(=O)c2nnc(Cc3ccccc3)[nH]2)COc2ccccc21
EC50 [1]: 0.279 µM | CC50 [2]: > 50 µM

CN1C(=O)[C@H](NC(=O)c2n[nH]c(Cc3ccccc3)n2)COc2cccnc21
EC50 [1]: 0.81 µM | CC50 [2]: > 50 µM

Cc1ccc2c(n1)OC[C@@H](NC(=O)c1n[nH]c(Cc3ccccc3)n1)C(=S)N2C
EC50 [1]: 2.02 µM | CC50 [2]: > 50 µM

Cc1ccc2c(n1)OC[C@H](NC(=O)c1n[nH]c(Cc3ccccc3)n1)C(=O)N2C
EC50 [1]: 0.363 µM | CC50 [2]: > 50 µM

Cc1cnc2c(c1)N(C)C(=O)[C@H](NC(=O)c1n[nH]c(Cc3ccccc3)n1)CO2
EC50 [1]: > 10 µM | CC50 [2]: > 50 µM

CCN1C(=S)[C@@H](NC(=O)c2n[nH]c(Cc3ccccc3)n2)COc2ccccc21
EC50 [1]: 1.51 µM | CC50 [2]: > 50 µM

CN1C(=O)[C@@H](NC(=O)c2n[nH]c(Cc3ccccc3)n2)COc2ncccc21
EC50 [1]: > 10 µM | CC50 [2]: > 50 µM

CN1C(=S)[C@@H](NC(=O)c2n[nH]c(Cc3ccccc3)n2)COc2ncccc21
EC50 [1]: > 10 µM | CC50 [2]: > 50 µM

O=C(N[C@@H]1COc2ccccc2NC1=S)c1n[nH]c(Cc2ccccc2)n1
EC50 [1]: 8.84 µM | CC50 [2]: > 50 µM

CN1C(=S)[C@H](NC(=O)c2n[nH]c(Cc3ccccc3)n2)COc2ccccc21
EC50 [1]: 0.0226 µM | Activity [3]: Dose-Dependent Effect | inhibition [4]: Dose-Dependent Effect | CC50 [2]: > 50 µM | inhibition [5]: Dose-Dependent Effect | inhibition [6]: Active | inhibition [7]: Active | inhibition [8]: Active | inhibition [9]: Active | inhibition [10]: Dose-Dependent Effect | inhibition [11]: Active

CN1C(=S)[C@@H](NC(=O)c2n[nH]c(Cc3ccccc3)n2)COc2cccnc21
EC50 [1]: 0.0137 µM | CC50 [2]: > 50 µM

CCN1C(=S)[C@H](NC(=O)c2n[nH]c(Cc3ccccc3)n2)COc2ccccc21
EC50 [1]: 6.68 µM | CC50 [2]: > 50 µM

Cc1ccc2c(n1)OC[C@H](NC(=O)c1n[nH]c(Cc3ccccc3)n1)C(=S)N2C
EC50 [1]: 0.122 µM | CC50 [2]: > 50 µM
